In one data set the target is T1, human GLP-2 receptor (Homo sapiens, UniProt O95838, D470N).
T1 sequence (O95838 1-553 D470N): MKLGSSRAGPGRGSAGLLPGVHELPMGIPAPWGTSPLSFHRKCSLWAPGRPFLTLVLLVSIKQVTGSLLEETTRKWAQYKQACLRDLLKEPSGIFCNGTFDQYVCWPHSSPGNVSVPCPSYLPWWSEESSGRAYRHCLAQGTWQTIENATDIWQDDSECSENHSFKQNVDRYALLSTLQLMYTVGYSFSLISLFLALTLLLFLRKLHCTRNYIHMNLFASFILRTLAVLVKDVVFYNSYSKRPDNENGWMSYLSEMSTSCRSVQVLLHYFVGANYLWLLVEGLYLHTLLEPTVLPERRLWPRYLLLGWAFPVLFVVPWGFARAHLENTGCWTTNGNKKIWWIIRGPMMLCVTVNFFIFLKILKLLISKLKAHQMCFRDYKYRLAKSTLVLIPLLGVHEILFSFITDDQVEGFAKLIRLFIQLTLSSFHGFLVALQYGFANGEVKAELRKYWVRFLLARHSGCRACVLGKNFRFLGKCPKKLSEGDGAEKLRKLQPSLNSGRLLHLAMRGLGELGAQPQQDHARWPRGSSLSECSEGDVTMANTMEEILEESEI
Kind of data set: GLP-2 receptor potency assay (cAMP AlphaScreen, HEK293 cells stably expressing GLP-2R). It is filed as cell-based. The note with it: cAMP response, HEK293 cells expressing human GLP-2R. The procedure, abridged: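 HEK293 cells stably expressing human GLP-2R (G418-selected clone); intracellular cAMP measured by AlphaScreen. Responses normalized to positive and vehicle controls; EC50 and maximal response from 4-parameter logistic fit.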

Data set [1] can be described thus: Solubility assessment by turbidity absorbance at 325 nm. Format: physicochemical. The note with it: 1 mg/ml peptide. On the procedure:
A stock solution of the test peptide (2 mg/ml; determined from the weighed amount of peptide) in demineralized water adjusted to pH 2.5 with HCl was prepared, and aliquots were diluted 1:1 in 100 mM acetate buffer (pH 4.0 and pH 5.0), 100 mM histidine buffer (pH 6.0 and pH 7.0) and 100 mM phosphate buffer (pH 6.0, pH 7.0 and pH7.5), respectively, and loaded in a standard flat-bottom, non-sterile 96-well UV Microplate. The absorbance of samples (single samples, n=1) at 280 and 325 nm was measured in an absorbance-based plate reader, which was preheated to ambient temperature (typically 25° C.).

Another data set concerns the target T2, human GLP-1 receptor (Homo sapiens, UniProt P43220).
T2 construct: expressed in transfected cells
Kind of data set: GLP-1 receptor potency assay (cAMP AlphaScreen, HEK293 cells stably expressing GLP-1R). Format: cell-based. The note with it: cAMP response, HEK293 cells expressing human GLP-1R; read-out: EC50 GLP-1. A digest of the protocol:
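A HEK293 clone stably expressing cloned human GLP-1R (G418-selected) was stimulated with compound. Intracellular cAMP was measured by AlphaScreen. Responses were normalized to positive and vehicle controls, and EC50 and maximal response were fitted by 4-parameter logistic regression.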
In general terms: Bead proximity is the source of the signal in Alpha formats.

Where [2] appears, read: 100 mM acetate buffer pH 4.0, ambient temperature, read-out: Solubility, Acetate buffer pH 4.
[3] abbreviates: 100 mM acetate buffer pH 5.0, ambient temperature, read-out: Solubility, Acetate buffer pH 5.
Setting [4] is: 100 mM histidine buffer pH 6.0, ambient temperature, read-out: Solubility, Histidine buffer pH 6.
The mark [5] stands for this setting: 100 mM histidine buffer pH 7.0, ambient temperature, read-out: Solubility, Histidine buffer pH 7.
Setting [6] is: 100 mM phosphate buffer pH 6.0, ambient temperature, read-out: Solubility, Phosphate buffer pH 6.
[7] abbreviates: 100 mM phosphate buffer pH 7.0, ambient temperature, read-out: Solubility, Phosphate buffer pH 7.
The mark [8] stands for this setting: 100 mM phosphate buffer pH 7.5, ambient temperature, read-out: Solubility, Phosphate buffer pH 7.5.

By pEC50 is commonly meant the EC50 on a negative log10 scale, so that one unit is a factor of ten. The solubility is the concentration that dissolves in the medium under given conditions.

pEC50: −log10 of the molar value. Like-named read-outs stand apart in the source and are kept apart here. Square brackets hold non-standard residues; d marks the D form. Peptide text beside a SMILES is read from it. Aib = CC(C)(N)C(=O)O

T2 sequence (P43220 24-463): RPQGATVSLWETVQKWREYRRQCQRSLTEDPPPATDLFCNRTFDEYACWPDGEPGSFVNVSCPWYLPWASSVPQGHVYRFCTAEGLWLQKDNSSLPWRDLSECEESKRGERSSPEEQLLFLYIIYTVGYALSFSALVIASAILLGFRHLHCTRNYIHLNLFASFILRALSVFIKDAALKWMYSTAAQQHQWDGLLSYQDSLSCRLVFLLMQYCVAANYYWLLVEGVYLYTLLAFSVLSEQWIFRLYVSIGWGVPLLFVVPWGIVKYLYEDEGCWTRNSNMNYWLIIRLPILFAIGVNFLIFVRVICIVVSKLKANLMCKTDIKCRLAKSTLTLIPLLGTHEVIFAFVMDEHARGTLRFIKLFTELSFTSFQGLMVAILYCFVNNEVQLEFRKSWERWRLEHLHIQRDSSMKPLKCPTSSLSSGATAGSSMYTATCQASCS

Take `CC[C@H](C)[C@H](NC(=O)[C@H](CC(C)C)NC(=O)[C@H](Cc1c[nH]c2ccccc12)NC(=O)[C@H](C)NC(=O)[C@@H](NC(=O)[C@H](Cc1ccccc1)NC(=O)[C@H](CC(=O)O)NC(=O)[C@H](CCCNC(=N)N)NC(=O)[C@H](C)NC(=O)[C@H](C)NC(=O)[C@H](CCC(N)=O)NC(=O)[C@H](CCC(=O)O)NC(=O)[C@H](CC(=O)O)NC(=O)[C@H](CC(C)C)NC(=O)[C@@H](NC(=O)[C@@H](NC(=O)[C@H](C)NC(=O)[C@H](CC(C)C)NC(=O)[C@H](CCC(=O)O)NC(=O)[C@H](CO)NC(=O)[C@@H](NC(=O)[C@H](Cc1ccccc1)NC(=O)[C@@H](NC(=O)CNC(=O)[C@H](CCC(=O)O)NC(=O)C(C)(C)NC(=O)[C@@H](N)Cc1c[nH]cn1)[C@@H](C)O)[C@@H](C)O)[C@@H](C)O)[C@@H](C)CC)[C@@H](C)CC)C(=O)N[C@@H](C)C(=O)N[C@@H](Cc1c[nH]cn1)C(=O)N[C@@H](CCCCN)C(=O)N[C@H](C(=O)N[C@H](C(=O)N[C@@H](CC(=O)O)C(=O)O)[C@@H](C)O)[C@@H](C)CC` [Compound 3] (H-H[Aib]EGTFTSELATILDEQAARDFIAWLIAHKITD-OH): the negative-log EC50 (pEC50) was 10.44 at human GLP-2 receptor and 11.13 at human GLP-1 receptor. The solubility was at least 1 mg/mL in data set [1] (setting [2]); below 1 mg/mL in data set [1] (setting [3]); at least 1 mg/mL in data set [1] (setting [4]); at least 1 mg/mL in data set [1] (setting [5]); at least 1 mg/mL in data set [1] (setting [6]); at least 1 mg/mL in data set [1] (setting [7]). In addition, the solubility in data set [1] (setting [8]) is at least 1 mg/mL.

Turning to `CC[C@H](C)[C@H](NC(=O)[C@H](Cc1ccccc1)NC(=O)[C@H](CC(=O)O)NC(=O)[C@H](CCCNC(=N)N)NC(=O)[C@H](C)NC(=O)[C@H](C)NC(=O)[C@H](CCC(N)=O)NC(=O)[C@H](CCC(=O)O)NC(=O)[C@H](CC(=O)O)NC(=O)[C@H](CC(C)C)NC(=O)[C@@H](NC(=O)[C@@H](NC(=O)[C@H](C)NC(=O)[C@H](CC(C)C)NC(=O)[C@H](CCC(=O)O)NC(=O)[C@H](CO)NC(=O)[C@@H](NC(=O)[C@H](Cc1ccccc1)NC(=O)[C@H](CO)NC(=O)CNC(=O)[C@H](CCC(=O)O)NC(=O)C(C)(C)NC(=O)[C@@H](N)Cc1c[nH]cn1)[C@@H](C)O)[C@@H](C)O)[C@@H](C)CC)C(=O)N[C@@H](C)C(=O)N[C@@H](Cc1c[nH]c2ccccc12)C(=O)N[C@@H](CC(C)C)C(=O)N[C@H](C(=O)N[C@@H](CCC(=O)O)C(=O)N[C@@H](Cc1c[nH]cn1)C(=O)N[C@@H](CCCCN)C(=O)N[C@H](C(=O)N[C@H](C(=O)N[C@@H](CC(=O)O)C(=O)O)[C@@H](C)O)[C@@H](C)CC)[C@@H](C)CC` [Compound 4] (H-H[Aib]EGSFTSELATILDEQAARDFIAWLIEHKITD-OH), the negative-log EC50 (pEC50) was 10.36 on human GLP-2 receptor and 10.82 at human GLP-1 receptor. In addition, the solubility in data set [1] (setting [2]) was at least 1 mg/mL; in data set [1] (setting [3]), below 1 mg/mL; in data set [1] (setting [4]) it was at least 1 mg/mL; in data set [1] (setting [5]) it was at least 1 mg/mL; in data set [1] (setting [6]) it was at least 1 mg/mL; in data set [1] (setting [7]), at least 1 mg/mL. Moreover, in data set [1] (setting [8]), the solubility is at least 1 mg/mL.

`CC[C@H](C)[C@H](NC(=O)[C@H](CC(C)C)NC(=O)[C@H](Cc1c[nH]c2ccccc12)NC(=O)[C@H](CC(N)=O)NC(=O)[C@@H](NC(=O)[C@H](Cc1ccccc1)NC(=O)[C@H](CC(=O)O)NC(=O)[C@H](CCCNC(=N)N)NC(=O)[C@H](C)NC(=O)[C@H](C)NC(=O)[C@H](CCC(N)=O)NC(=O)[C@H](CCC(=O)O)NC(=O)[C@H](CC(=O)O)NC(=O)[C@H](CC(C)C)NC(=O)[C@@H](NC(=O)[C@@H](NC(=O)[C@H](C)NC(=O)[C@H](CC(C)C)NC(=O)[C@H](CCC(=O)O)NC(=O)[C@H](CO)NC(=O)[C@@H](NC(=O)[C@H](Cc1ccccc1)NC(=O)[C@@H](NC(=O)CNC(=O)[C@H](CCC(=O)O)NC(=O)C(C)(C)NC(=O)[C@@H](N)Cc1c[nH]cn1)[C@@H](C)O)[C@@H](C)O)[C@@H](C)O)[C@@H](C)CC)[C@@H](C)CC)C(=O)N[C@@H](C)C(=O)N[C@@H](Cc1c[nH]cn1)C(=O)N[C@@H](CCCCN)C(=O)N[C@H](C(=O)N[C@H](C(=O)N[C@@H](CC(=O)O)C(=O)O)[C@@H](C)O)[C@@H](C)CC` [Compound 33] (H-H[Aib]EGTFTSELATILDEQAARDFINWLIAHKITD-OH): the pEC50 on human GLP-2 receptor was 10.39; at human GLP-1 receptor, 11.40.

On to `CC[C@H](C)[C@H](NC(=O)[C@H](Cc1ccccc1)NC(=O)[C@H](CC(=O)O)NC(=O)[C@H](CCCNC(=N)N)NC(=O)[C@H](C)NC(=O)[C@H](C)NC(=O)[C@H](CCC(N)=O)NC(=O)[C@H](CCC(=O)O)NC(=O)[C@H](CC(=O)O)NC(=O)[C@H](CC(C)C)NC(=O)[C@@H](NC(=O)[C@@H](NC(=O)[C@H](C)NC(=O)[C@H](CC(C)C)NC(=O)[C@H](CCC(=O)O)NC(=O)[C@H](CO)NC(=O)[C@@H](NC(=O)[C@H](Cc1ccccc1)NC(=O)[C@@H](NC(=O)CNC(=O)[C@H](CCC(=O)O)NC(=O)C(C)(C)NC(=O)[C@@H](N)Cc1c[nH]cn1)[C@@H](C)O)[C@@H](C)O)[C@@H](C)O)[C@@H](C)CC)C(=O)N[C@@H](CC(N)=O)C(=O)N[C@@H](Cc1c[nH]c2ccccc12)C(=O)N[C@@H](CC(C)C)C(=O)N[C@@H](CCCCN)C(=O)N[C@@H](CO)C(=O)N[C@@H](Cc1ccc(O)cc1)C(=O)N[C@@H](CCCCN)C(=O)N[C@H](C(=O)N[C@H](C(=O)N[C@@H](CC(=O)O)C(=O)O)[C@@H](C)O)[C@@H](C)CC` [Compound 36] (H-H[Aib]EGTFTSELATILDEQAARDFINWLKSYKITD-OH), for which the negative-log EC50 (pEC50) was 9.96 on human GLP-2 receptor and 11.15 on human GLP-1 receptor.

Take `CC[C@H](C)[C@H](NC(=O)[C@H](Cc1ccccc1)NC(=O)[C@H](CC(=O)O)NC(=O)[C@H](CCCNC(=N)N)NC(=O)[C@H](C)NC(=O)[C@H](C)NC(=O)[C@H](CCC(N)=O)NC(=O)[C@H](CCC(=O)O)NC(=O)[C@H](CC(=O)O)NC(=O)[C@H](CC(C)C)NC(=O)[C@@H](NC(=O)[C@@H](NC(=O)[C@H](C)NC(=O)[C@H](CC(C)C)NC(=O)[C@H](CCC(=O)O)NC(=O)[C@H](CO)NC(=O)[C@@H](NC(=O)[C@H](Cc1ccccc1)NC(=O)[C@@H](NC(=O)CNC(=O)[C@H](CCC(=O)O)NC(=O)C(C)(C)NC(=O)[C@@H](N)Cc1c[nH]cn1)[C@@H](C)O)[C@@H](C)O)[C@@H](C)O)[C@@H](C)CC)C(=O)N[C@@H](CC(N)=O)C(=O)N[C@@H](Cc1c[nH]c2ccccc12)C(=O)N[C@@H](CC(C)C)C(=O)N[C@@H](CCCCN)C(=O)N[C@@H](CCC(=O)O)C(=O)N[C@@H](CCC(N)=O)C(=O)N[C@@H](CCCCN)C(=O)N[C@H](C(=O)N[C@H](C(=O)N[C@@H](CC(=O)O)C(=O)O)[C@@H](C)O)[C@@H](C)CC` [Compound 37] (H-H[Aib]EGTFTSELATILDEQAARDFINWLKEQKITD-OH): the figures for the pEC50 on human GLP-2 receptor and at human GLP-1 receptor were 9.80 and 11.15, respectively.

With `CC[C@H](C)[C@H](NC(=O)[C@H](Cc1ccccc1)NC(=O)[C@H](CC(=O)O)NC(=O)[C@H](CCCNC(=N)N)NC(=O)[C@H](C)NC(=O)[C@H](C)NC(=O)[C@H](CCC(N)=O)NC(=O)[C@H](CCC(=O)O)NC(=O)[C@H](CC(=O)O)NC(=O)[C@H](CC(C)C)NC(=O)[C@@H](NC(=O)[C@@H](NC(=O)[C@H](C)NC(=O)[C@H](CC(C)C)NC(=O)[C@H](CCC(=O)O)NC(=O)[C@H](CO)NC(=O)[C@H](CO)NC(=O)[C@H](Cc1ccccc1)NC(=O)[C@H](CO)NC(=O)CNC(=O)[C@H](CCC(=O)O)NC(=O)C(C)(C)NC(=O)[C@@H](N)Cc1c[nH]cn1)[C@@H](C)O)[C@@H](C)CC)C(=O)N[C@@H](C)C(=O)N[C@@H](Cc1c[nH]c2ccccc12)C(=O)N[C@@H](CC(C)C)C(=O)N[C@H](C(=O)N[C@@H](CCC(N)=O)C(=O)N[C@@H](Cc1c[nH]cn1)C(=O)N[C@@H](CCCCN)C(=O)N[C@H](C(=O)N[C@H](C(=O)N[C@@H](CC(=O)O)C(=O)O)[C@@H](C)O)[C@@H](C)CC)[C@@H](C)CC` [Compound 41] (H-H[Aib]EGSFSSELATILDEQAARDFIAWLIQHKITD-OH), the negative logarithm of the EC50 (pEC50) at human GLP-2 receptor was 10.59; at human GLP-1 receptor it was 10.11.

For “H-HGEGSFSSELATILDEQAARDFIAWLIQHKITD-NH2 [Compound 40]”, the pEC50 on human GLP-2 receptor was 10.30; at human GLP-1 receptor, 8.85.

For the origin of these results see patent US11130793B2, “GLP-1/GLP-2 dual agonists” (Zealand Pharma A/S, priority 2016, dated 2021).
